The results in this text go back to PubChem BioAssay (NCI).

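Test compounds were applied to cells in 96-well plates for 48 hours at 5 doses. TGI: concentration producing complete growth inhibition.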

Holding throughout (assay): NCI anticancer screen, dose series, 48 h
The subject of experiment [1] is T-47D breast.
The test system of experiment [2] is DU-145 prostate.
Experiment [3] concerns OVCAR-3 ovarian.
Experiment [4] deals with MDA-N.
Experiment [5] has as its system SF-295 CNS.
Experiment [6] has as its system IGROV1 ovarian.
Experiment [7] concerns NCI-H460 lung.
Experiment [8] relates to TK-10 renal.
The subject of experiment [9] is M14 melanoma.
In experiment [10] the test system is SNB-75 CNS.
Experiment [11] relates to HCT-15 colon.

As for `Cc1cc2nc3c(N)nn(CCN(C)C)c3nc2cc1C`, the TGI in experiment [1], in [2], in experiment [3], in experiment [4], in experiment [5] and in experiment [6] was above 100 µM each time. Moreover, the TGI in [7] is above 100 µM; in experiment [8], above 100 µM; in experiment [9], above 100 µM; in experiment [10], 97.9 µM; in [11], above 100 µM.

`CCOc1ccccc1N=NC1C(=O)N(C(=O)CC(=O)Nc2ccccc2OC)N=C1C` (stereo not drawn): the TGI is above 100 µM in [1]; above 100 µM in experiment [2]; above 100 µM in [3]; above 100 µM in [4]; 55.6 µM in experiment [5]; above 100 µM in experiment [6]. In addition, the TGI in [7] is above 100 µM; in experiment [8], above 100 µM; in [9], above 100 µM; in experiment [10] it was 42.1 µM; in [11], 79.8 µM.

On to `Cc1ccc(C2(N3CCOCC3)OC(C)(C)c3cccc4cccc2c34)cc1` (stereo not drawn), for which the TGI in experiment [1] was 60.4 µM; in experiment [2], 37 µM; in experiment [3], 34.4 µM; in experiment [4] it was 34.1 µM; in experiment [5], 33.6 µM; in [6] it was 35.2 µM. Further, the TGI in experiment [7] came out at 30.2 µM; in experiment [8] it was 39 µM; in experiment [9] it was 32.7 µM; in experiment [10] it was 30.5 µM; in [11], 40 µM.
